Reference: patent US9555009B2, “Ciprofloxacin loaded diethylaminoethyl cellulose nanoparticles” (priority 2014, dated 2017)

Conditions: XRD

O=C(O)c1cn(C2CC2)c2cc(N3CCNCC3)c(F)cc2c1=O [pure ciprofloxacin, Ciprofloxacin]
average crystallite size / particle size by Scherrer's equation: 3.22 nm
